Some results are limits rather than exact numbers.

For data set [1], the target named is Human immunodeficiency virus type 1 protease (Human immunodeficiency virus 1, UniProt Q72874). Kind of data set: Compound was tested for binding affinity against HIV-1 Protease.
For data set [2], the system named is MT2. As to the kind of experiment: Cellular antiviral activity (IC90) assessed on human MT-2 cells infected with HIV-RF. Type of data set: functional.
A short description of data set [3]: In vivo evaluation of maximum plasma concentration at a dose of 10 mg/kg. Type of data set: ADME, organism-based. Details: dose 10 mg/kg.
Data set [4] in a line: The half life in dog. Type of data set: ADME, organism-based, Canis lupus familiaris. The conditions noted are these: in vivo.
A short description of data set [5]: Oral bioavailability in dog. Type of data set: ADME, organism-based, Canis lupus familiaris. The conditions noted are these: in vivo.

On to `Nc1cccc(CN2C(=O)N(Cc3cccc(N)c3)[C@H](Cc3ccc4c(c3)OCCO4)[C@H](O)[C@@H](O)[C@H]2Cc2ccc3c(c2)OCCO3)c1`, for which the Ki (as a rule, the equilibrium dissociation constant of an inhibitor or competing ligand from its target) in data set [1] was 0.04 nM. The IC90 (in general, the concentration at which the effect reaches the 90% level) in data set [2] was determined as 40 nM.
In data set [1], `O=C1N(Cc2ccccc2)[C@H](Cc2ccc3c(c2)OCCO3)[C@H](O)[C@@H](O)[C@@H](Cc2ccc3c(c2)OCCO3)N1Cc1ccccc1` gave a Ki of 0.44 nM. The same compound had an IC90 in data set [2] of 112 nM.
Regarding `O=C1N(Cc2ccccc2)[C@H](Cc2ccc3c(c2)CCO3)[C@H](O)[C@@H](O)[C@@H](Cc2ccc3c(c2)CCO3)N1Cc1ccccc1`, in data set [2], the 90% effect level (IC90) was put at 305 nM.
In turn, `CN1CCOc2ccc(C[C@@H]3[C@H](O)[C@@H](O)[C@@H](Cc4ccc5c(c4)N(C)CCO5)N(Cc4ccccc4)C(=O)N3Cc3ccccc3)cc21` returned an inhibition constant (Ki) in data set [1] of 0.7 nM. This compound had an IC90 in data set [2] of 218 nM.
With `O=C1N(Cc2ccccc2)[C@H](Cc2ccc3ccccc3c2)[C@H](O)[C@@H](O)[C@@H](Cc2ccc3ccccc3c2)N1Cc1ccccc1`, it took 3200 nM to reach the 90% level in data set [2] (IC90).
Take `CC(=O)c1cc(CN2C(=O)N(Cc3ccc(F)c(C(C)=O)c3)[C@H](Cc3ccc4c(c3)OCCO4)[C@H](O)[C@@H](O)[C@H]2Cc2ccc3c(c2)OCCO3)ccc1F`: the affinity in data set [1] corresponds to a Ki of 0.64 nM. The same compound gave an IC90 in data set [2] of 84 nM.
`CC(=O)c1cccc(CN2C(=O)N(Cc3cccc(C(C)=O)c3)[C@H](Cc3ccc4c(c3)OCCO4)[C@H](O)[C@@H](O)[C@H]2Cc2ccc3c(c2)OCCO3)c1`: the inhibition constant Ki in data set [1] turned out to be 0.04 nM. In data set [2], this compound returned an IC90 of 4.2 nM.
Compound `CNc1cccc(CN2C(=O)N(Cc3cccc(N)c3)[C@H](Cc3ccc4c(c3)OCCO4)[C@H](O)[C@@H](O)[C@H]2Cc2ccc3c(c2)OCCO3)c1` showed a Ki in data set [1] of 0.11 nM. In data set [2], this compound showed an IC90 of 27 nM.
In the case of `Nc1cccc(CN2C(=O)N(Cc3cccc(N)c3)[C@H](Cc3ccc4c(c3)CCO4)[C@H](O)[C@@H](O)[C@H]2Cc2ccc3c(c2)CCO3)c1`, the affinity in data set [1], expressed as Ki, was 0.11 nM. For the same compound, the IC90 in data set [2] was found to be 30.6 nM.
The matching figures for `CC(=O)c1cccc(CN2C(=O)N(Cc3cccc(C(C)=O)c3)[C@H](Cc3ccc4c(c3)CCO4)[C@H](O)[C@@H](O)[C@H]2Cc2ccc3c(c2)CCO3)c1`: 0.048 nM and 10 nM.
`O=C1N(Cc2ccc(O)cc2)[C@H](Cc2ccc3c(c2)OCCO3)[C@H](O)[C@@H](O)[C@@H](Cc2ccc3c(c2)OCCO3)N1Cc1ccc(O)cc1` displayed a Ki in data set [1] of 0.03 nM. In data set [2], this compound gave an IC90 of 107 nM.
The matching figures for `COc1cc(C[C@@H]2[C@H](O)[C@@H](O)[C@@H](Cc3cc(OC)cc(OC)c3)N(Cc3cccc(C(C)=O)c3)C(=O)N2Cc2cccc(C(C)=O)c2)cc(OC)c1`: 0.4 nM and 46.4 nM.
The matching figures for `O=C1N(Cc2ccccc2)[C@H](Cc2ccc3c(c2)OCO3)[C@H](O)[C@@H](O)[C@@H](Cc2ccc3c(c2)OCO3)N1Cc1ccccc1`: 1 nM and 504 nM.
The matching figures for `O=C1N(Cc2ccc3ccccc3c2)[C@H](Cc2ccc3c(c2)OCCO3)[C@H](O)[C@@H](O)[C@@H](Cc2ccc3c(c2)OCCO3)N1Cc1ccc2ccccc2c1`: 0.04 nM and 98 nM.
`CNc1cccc(CN2C(=O)N(Cc3cccc(NC)c3)[C@H](Cc3ccc4c(c3)CCO4)[C@H](O)[C@@H](O)[C@H]2Cc2ccc3c(c2)CCO3)c1` yielded a Ki in data set [1] of 0.2 nM. The compound further displayed an IC90 in data set [2] of 61.6 nM.
Turning to `O=C1N(Cc2ccccc2)[C@H](Cc2ccccc2)[C@H](O)[C@@H](O)[C@@H](Cc2ccccc2)N1Cc1ccccc1`, the IC90 in data set [2] was determined as 790 nM.
The compound `CC(=O)c1cccc(CN2C(=O)N(Cc3cccc(C(C)=O)c3)[C@H](Cc3ccc4c(c3)OCO4)[C@H](O)[C@@H](O)[C@H]2Cc2ccc3c(c2)OCO3)c1` gave a Ki in data set [1] of 0.043 nM. This compound displayed an IC90 in data set [2] of 14.7 nM.
In the case of `CC(=O)c1cc(CN2C(=O)N(Cc3ccc(F)c(C(C)=O)c3)[C@H](Cc3ccc4c(c3)OCO4)[C@H](O)[C@@H](O)[C@H]2Cc2ccc3c(c2)OCO3)ccc1F`, the Ki in data set [1] was determined as 1.5 nM. The IC90 in data set [2] came to 265 nM.
As for `CC(=O)c1cccc(CN2C(=O)N(Cc3cccc(C(C)=O)c3)[C@H](Cc3ccc4c(c3)N(C)CCO4)[C@H](O)[C@@H](O)[C@H]2Cc2ccc3c(c2)N(C)CCO3)c1`, in data set [1], affinity was put at a Ki of 0.08 nM. In data set [2], this compound had a concentration for an effect of 90% (IC90) of 16.4 nM.
`COc1cc(C[C@@H]2[C@H](O)[C@@H](O)[C@@H](Cc3cc(OC)cc(OC)c3)N(Cc3ccccc3)C(=O)N2Cc2ccccc2)cc(OC)c1` registered a Ki in data set [1] of 8 nM. In data set [2], this compound returned a concentration for an effect of 90% (IC90) of over 5000 nM.
For `CNc1cccc(CN2C(=O)N(Cc3cccc(NC)c3)[C@H](Cc3ccc4c(c3)OCCO4)[C@H](O)[C@@H](O)[C@H]2Cc2ccc3c(c2)OCCO3)c1`, the Ki in data set [1] came to 0.14 nM. Moreover, the highest level in data set [3] (Cmax) was 220 ng/mL. Also, the 90% effect level in data set [2] (IC90) was put at 8.7 nM. Moreover, the half-life – broadly, how long it takes for the measured level to halve – in data set [4] is 48 min. In data set [5], the bioavailability (usually the share of a dose that reaches the circulation, judged against a reference dose that is usually intravenous) is 4.6%.
In data set [1], `O=C1N(Cc2ccc(CO)cc2)[C@H](Cc2ccc3c(c2)OCCO3)[C@H](O)[C@@H](O)[C@@H](Cc2ccc3c(c2)OCCO3)N1Cc1ccc(CO)cc1` yielded a Ki of 0.05 nM. The compound further returned a concentration for an effect of 90% (IC90) in data set [2] of 83 nM.
Regarding `COc1ccc(C[C@@H]2[C@H](O)[C@@H](O)[C@@H](Cc3ccc(OC)c(OC)c3)N(Cc3ccccc3)C(=O)N2Cc2ccccc2)cc1OC`, the Ki in data set [1] turned out to be 6.4 nM. The 90% effect level in data set [2] (IC90) was put at 640 nM.
The matching figures for `O=C1N(CC2CC2)[C@H](Cc2ccc3c(c2)OCCO3)[C@H](O)[C@@H](O)[C@@H](Cc2ccc3c(c2)OCCO3)N1CC1CC1`: 0.27 nM and 928 nM.

For the origin of these results see ChEMBL document CHEMBL1130027, “Improved P1/P1' substituents for cyclic urea based HIV-1 protease inhibitors: synthesis, structure-activity relationship, and X-ray crystal structure analysis” (J Med Chem, 1997).
